Data: publication PMC2263054, “Functional evolution of the vitamin D and pregnane X receptors” (BMC Evolutionary Biology, 2007)

Columns and labels:
Mouse VDR = molecular target: T1, Mouse VDR (Mus musculus, UniProt P48281); assay: luciferase reporter transactivation assay in HepG2-NTCP cells, full-length mVDR with CYP3A4-PXRE-Luc; conditions: HepG2-NTCP cells, luciferase reporter; unit not given; also cells saying No effect
T1 sequence (P48281 1-422): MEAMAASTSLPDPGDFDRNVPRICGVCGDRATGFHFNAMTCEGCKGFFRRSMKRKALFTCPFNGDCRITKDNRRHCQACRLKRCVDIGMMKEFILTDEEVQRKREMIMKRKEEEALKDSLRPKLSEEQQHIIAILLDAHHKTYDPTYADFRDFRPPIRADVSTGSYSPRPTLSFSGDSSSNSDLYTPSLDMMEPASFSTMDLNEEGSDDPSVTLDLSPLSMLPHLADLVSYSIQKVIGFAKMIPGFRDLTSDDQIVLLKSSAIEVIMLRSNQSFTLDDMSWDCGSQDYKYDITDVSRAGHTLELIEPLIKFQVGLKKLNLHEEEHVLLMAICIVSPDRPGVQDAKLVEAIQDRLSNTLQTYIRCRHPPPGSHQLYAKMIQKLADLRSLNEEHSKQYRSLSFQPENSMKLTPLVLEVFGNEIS

[1] = system: Flurbiprofen 4-hydroxylation; assay: flurbiprofen hydroxylation assay in sea lamprey primary hepatocytes; format: cell-based; conditions: 48 hour treatment, 5α-petromyzonol 20 μM, 3-MC 5 μM, basal 2.8
EROD activity [2] = assay: EROD assay in sea lamprey primary hepatocytes; conditions: 24–48 hr exposure
Xenopus laevis VDR = molecular target: T2, Xenopus laevis VDR (Xenopus laevis, UniProt O13124); assay: luciferase reporter transactivation assay in HepG2-NTCP cells, GAL4/xlVDR LBD chimera with tk-UAS-Luc; format: cell-based; conditions: for Xenopus VDR EC50 ± SD: HepG2-NTCP cells, luciferase reporter, unit not given, also cells saying No effect
T2 sequence (O13124 90-422): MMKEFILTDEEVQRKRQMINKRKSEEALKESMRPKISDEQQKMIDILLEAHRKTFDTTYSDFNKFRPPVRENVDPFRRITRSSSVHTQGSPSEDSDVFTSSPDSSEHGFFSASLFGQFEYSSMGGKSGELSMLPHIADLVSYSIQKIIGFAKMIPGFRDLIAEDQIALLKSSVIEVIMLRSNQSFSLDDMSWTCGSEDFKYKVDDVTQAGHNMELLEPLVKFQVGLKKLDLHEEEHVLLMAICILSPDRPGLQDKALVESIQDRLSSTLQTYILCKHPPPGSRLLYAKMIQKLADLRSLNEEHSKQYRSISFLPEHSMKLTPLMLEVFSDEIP

Zebrafish VDR = molecular target: T3, Zebrafish VDR (Danio rerio, UniProt Q9PTN2); assay: luciferase reporter transactivation assay in HepG2-NTCP cells, GAL4/zfVDR LBD chimera with tk-UAS-Luc; format: cell-based; conditions: for Zebrafish VDR EC50 ± SD: HepG2-NTCP cells, luciferase reporter, unit not given, also cells saying No effect
T3 sequence (Q9PTN2 121-453): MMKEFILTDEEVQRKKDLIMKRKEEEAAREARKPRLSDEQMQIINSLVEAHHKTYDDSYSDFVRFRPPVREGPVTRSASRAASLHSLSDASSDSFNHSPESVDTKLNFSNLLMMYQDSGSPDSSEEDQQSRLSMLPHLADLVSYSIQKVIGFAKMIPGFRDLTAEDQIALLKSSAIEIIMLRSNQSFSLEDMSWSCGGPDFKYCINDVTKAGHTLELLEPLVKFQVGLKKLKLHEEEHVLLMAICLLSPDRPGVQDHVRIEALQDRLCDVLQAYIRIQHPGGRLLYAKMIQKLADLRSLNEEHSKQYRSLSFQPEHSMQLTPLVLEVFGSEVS

Sea lamprey VDR = molecular target: T4, Sea lamprey VDR (Petromyzon marinus, UniProt Q7ZZY9); format: cell-based; conditions: for Sea lamprey VDR EC50 ± SD: HepG2-NTCP cells, luciferase reporter, unit not given, also cells saying No effect
T4 sequence (Q7ZZY9 92-406): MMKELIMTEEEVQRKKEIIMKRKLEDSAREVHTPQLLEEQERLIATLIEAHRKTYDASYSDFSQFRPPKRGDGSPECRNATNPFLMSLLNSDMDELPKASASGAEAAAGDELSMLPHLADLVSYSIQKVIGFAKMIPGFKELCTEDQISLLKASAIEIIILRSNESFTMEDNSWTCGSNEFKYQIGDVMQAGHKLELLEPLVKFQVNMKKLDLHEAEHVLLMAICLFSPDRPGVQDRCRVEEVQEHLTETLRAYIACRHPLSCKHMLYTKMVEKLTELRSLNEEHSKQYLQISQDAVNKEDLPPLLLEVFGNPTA

Human VDR = molecular target: T5, Human VDR (Homo sapiens, UniProt P11473); assay: luciferase reporter transactivation assay in HepG2-NTCP cells, full-length hVDR with CYP3A4-PXRE-Luc; conditions: HepG2-NTCP cells, luciferase reporter; unit not given; also cells saying No effect
T5 sequence (P11473 1-427): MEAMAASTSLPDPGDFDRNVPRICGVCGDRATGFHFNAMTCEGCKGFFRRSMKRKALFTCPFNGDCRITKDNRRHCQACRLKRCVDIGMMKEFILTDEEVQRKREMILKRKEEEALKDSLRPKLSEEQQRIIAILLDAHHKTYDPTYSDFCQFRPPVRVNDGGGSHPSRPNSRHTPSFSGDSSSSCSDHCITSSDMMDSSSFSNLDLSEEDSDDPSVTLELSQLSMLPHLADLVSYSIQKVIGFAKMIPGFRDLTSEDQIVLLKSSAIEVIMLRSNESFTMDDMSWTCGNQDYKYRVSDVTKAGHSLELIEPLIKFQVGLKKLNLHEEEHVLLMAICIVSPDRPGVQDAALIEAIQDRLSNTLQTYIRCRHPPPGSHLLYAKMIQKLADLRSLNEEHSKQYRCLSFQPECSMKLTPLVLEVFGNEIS

[3] = system: testosterone 6β-hydroxylation; assay: testosterone hydroxylation (HPLC) in sea lamprey primary hepatocytes; format: cell-based; conditions: concentration ranges per compound
Description: (§1) 100 μL of sample, calibration standard, or quality material standard were pipetted into separate microcentrifuge tubes and mixed with 100 μL of methanol. Samples were vortexed and centrifuged at 13,000 rpm for 4 min. The supernatant was then injected into the HPLC.
(§2) The flow rate was 1.2 mL/min and total run time was 25 min.

[4] = system: ethoxyresorufin O-deethylase (EROD) activity (CYP1A-like activity); assay: EROD assay in zebrafish primary hepatocytes; conditions: for maximal rate of EROD activity: zebrafish primary hepatocytes, 24 hour exposure (Figure 3 legend: 48-hour)
Description: (§3) The cells are cultured at 26°C in ambient atmosphere.

[5] = system: flurbiprofen 4-hydroxylation activity (CYP2C-like activity); conditions: zebrafish primary hepatocytes, 48-hour exposure; TCDD 1 nM, androstanol 200 μM
[6] = system: testosterone 6β-hydroxylation activity (CYP3A-like activity); assay: testosterone hydroxylation (HPLC) in zebrafish primary hepatocytes
Description: as §3, §1, §2

zebrafish PXR = conditions: luciferase reporter in HepG2 cells, normalized to 20 μM androstanol
[7] = system: 6β- and 12α-hydroxylation of testosterone; assay: testosterone hydroxylation (HPLC) in African clawed frog primary hepatocytes; format: cell-based, Xenopus laevis; conditions: relative to vehicle control
Description: Xenopus laevis primary hepatocytes were cultured by a protocol adapted from a published report. Frogs are sacrificed with MS-222, rinsed with 70% ethanol, and the liver lobes perfused via the heart, initially with 375 mL Barth (88 mM NaCl, 1 mM K2SO4, and 10 mM HEPES-NaOH, pH 7.4) containing 0.82 mM MgCl2 and 0.1 mg/mL heparin, and then with 25 mL Barth containing 2.22 mM Ca(NO3)2, 2.74 mM CaCl2, and 200 U/mL type I collagenase (Worthington Chemicals, Lakewood, NJ). Livers are minced to fine pieces in 12.5 mL Barth-collagenase solution and then incubated for 10 min at room temperature, periodically disaggregating the liver pieces with a Pasteur pipette. The liver cells are then placed on a shaking incubator for 5 min at room temperature, followed by another 10 min of periodic pipetting to complete disaggregation. Cells are then filtered through a 130 μm Nitex nylon mesh (Fisher Scientific), following by spinning at 500 g for 5 min at 4°C. The supernatant is then aspirated and diluted to 50 mL with Barth plus MgCl2 and then allowed to settle while cooled in ice for 30 min. The supernatant is removed, and the cellular pellet is resuspended and subjected to one more round of nylon mesh filtration, dilution in Barth plus MgCl2, and settling while cooled in ice. The supernatant is removed and the remaining cells are washed once with Barth plus MgCl2 and then centrifuged at 500 g for 5 min at 4°C. The cells are then resuspended in 0.6 × Coon's Modified Ham's F-12 medium (Invitrogen) supplemented with 0.1 × Barth (88 mM NaCl, 1 mM K2SO4, 10 mM HEPES), 200 U/mL penicillin G, 100 μg/mL streptomycin sulfate, 2 mM glutamine, 0.2% glucose, and 10 μg/mL bovine insulin (Calbiochem), with the final pH adjusted to 7.5. […] Cells are cultured at 20°C in ambient atmosphere.
Testosterone metabolites were identified and quantitated by HPLC. […] The supernatant was then injected into the HPLC.

EROD activity [8] = assay: EROD assay in African clawed frog primary hepatocytes; format: cell-based, Xenopus laevis; conditions: 48 hour exposure
Description: Xenopus laevis primary hepatocytes were cultured by a protocol adapted from a published report. Frogs are sacrificed with MS-222, rinsed with 70% ethanol, and the liver lobes perfused via the heart, initially with 375 mL Barth (88 mM NaCl, 1 mM K2SO4, and 10 mM HEPES-NaOH, pH 7.4) containing 0.82 mM MgCl2 and 0.1 mg/mL heparin, and then with 25 mL Barth containing 2.22 mM Ca(NO3)2, 2.74 mM CaCl2, and 200 U/mL type I collagenase (Worthington Chemicals, Lakewood, NJ). Livers are minced to fine pieces in 12.5 mL Barth-collagenase solution and then incubated for 10 min at room temperature, periodically disaggregating the liver pieces with a Pasteur pipette. The liver cells are then placed on a shaking incubator for 5 min at room temperature, followed by another 10 min of periodic pipetting to complete disaggregation. Cells are then filtered through a 130 μm Nitex nylon mesh (Fisher Scientific), following by spinning at 500 g for 5 min at 4°C. The supernatant is then aspirated and diluted to 50 mL with Barth plus MgCl2 and then allowed to settle while cooled in ice for 30 min. The supernatant is removed, and the cellular pellet is resuspended and subjected to one more round of nylon mesh filtration, dilution in Barth plus MgCl2, and settling while cooled in ice. […]

[9] = screening for activators, at least three concentrations of each drug

| Compound | Mouse VDR EC50 ± SD (Mouse VDR) | Flurbiprofen 4-hydroxylation activity [1] [nmol/min/mg protein] | effect on EROD activity (EROD activity [2]) | Xenopus VDR EC50 ± SD (Xenopus laevis VDR) | Zebrafish VDR EC50 ± SD (Zebrafish VDR) | Sea lamprey VDR EC50 ± SD (Sea lamprey VDR) | Human VDR EC50 ± SD (Human VDR) | effect on testosterone 6β-hydroxylation [3] | maximal rate of EROD activity [4] [pmol/min/mg protein] | other results |
| --- | --- | --- | --- | --- | --- | --- | --- | --- | --- | --- |
| C[C@H](CCCO)[C@H]1CC[C@H]2[C@@H]3[C@H](O)C[C@H]4C[C@H](O)CC[C@]4(C)[C@H]3C[C@H](O)[C@]12C [5α-Petromyzonol, 5α-cholan-3α,7α,12α,24-tetrol] | No effect | 0.21 | did not alter EROD activity | No effect | No effect | No effect | No effect | None of these compounds produced significant increases in testosterone 6β-hydroxylation |  | Ciona VDR/PXR EC50 ± SD (Ciona VDR/PXR; HepG2-NTCP cells, luciferase reporter, unit not given, also cells saying No effect): No effect |
| Cc1ccc2cc3c(ccc4ccccc43)c3c2c1CC3 [3-Methylcholanthrene] |  | 0.33 | did not alter EROD activity |  |  |  |  | None of these compounds produced significant increases in testosterone 6β-hydroxylation | 28.1 | Effect on Xenopus laevis VDR (Xenopus laevis VDR; [9]): No effect; Effect on zebrafish VDR (Zebrafish VDR; [9]): No effect; Effect on sea lamprey VDR (Sea lamprey VDR; [9]): No effect; EC50 ([4]; zebrafish, pH 7.8): 373 ± 22 nM |
| Clc1cc2c(cc1Cl)Oc1cc(Cl)c(Cl)cc1O2 [2,3,7,8-Tetrachlorodibenzo-p-dioxin, 2,3,7,8-tetrachlorodibenzo-p-dioxin] | No effect |  | did not alter EROD activity | No effect | No effect | No effect | No effect | None of these compounds produced significant increases in testosterone 6β-hydroxylation | 33.0 | effect on flurbiprofen 4-hydroxylation activity [5]: Lesser increases relative to vehicle control; EC50 at 48 h ([6]; zebrafish): 0.154 ± 0.03 nM; maximal rate of testosterone 6β-hydroxylation ([6]; zebrafish primary hepatocytes, 48-hour exposure): 2830 pmol/min/mg protein; activation of recombinant zebrafish PXR (zebrafish PXR): all activate recombinant zebrafish PXR; Ciona VDR/PXR relative efficacy (Ciona VDR/PXR; relative to maximal reference compound (20 μM 6-formylindolo-[3,2-b]-carbazole, efficacy = 1.0)): 1.80; activation of ciVDR/PXR (Ciona VDR/PXR; unpublished data of the authors): activated; effect on 6β- and 12α-hydroxylation of testosterone [7]: neither activity was substantially increased relative to vehicle control; maximal rate of EROD activity (EROD activity [8]): 9.8 pmol/min/mg protein; EC50 (EROD activity [8]; Xenopus laevis, Hepatocyte, read-out: EC50 for increase of EROD activity): 6.5 ± 0.77 nM; EC50 at 24 h ([4]; zebrafish, pH 7.8): 0.15 ± 0.022 nM |
